Reference: US10238623B2, “C14-hydroxyl esterified amino acid derivative of triptolide, and preparation method and use thereof” (HANGZHOU WEBEN PHARMACEUTICALS INC, priority 2015, dated 2019)
Where “and” joins values, the source holds several entries; their conditions need not be identical. Identical values can stand only once.

How the values were obtained:
[1] = system: human leukemia cells (Jurkat, CEM, Molt-4, Sup-B15); experiment: Therapeutic window over 4 types of human leukemia cells (MTT); format: cell-based; conditions: for 4 different types of human leukemia cells
Experimental: (§1) 5000 well-grown leukemia cells or normal human blood cells were taken and seeded into wells of a 96-well cell culture plate. The medium was 1640 cell medium containing 10% fetal bovine serum. 14-D-Valine-TPL with different concentrations was added, and after being uniformly mixed, the plate was placed in a carbon dioxide (5% CO2) cell incubator, and incubated at 37° C. for 72 hours. The concentration of live cells was then determined using the MTT assay. In this experiment, the cell viability in the control group (without the compound treatment) was set to be 100%, and the cell viability (%) after the action of the compound the half maximal growth inhibitory concentration of leukemia cells at 72 hours (IC50 value at 72 hours) and the therapeutic window index were calculated. Therapeutic window index=IC50 value of normal blood cells/IC50 value of leukemia cells. […] A larger therapeutic window indicates a better selectivity of the compound for tumor cells.

[2] = Body weight and organ examination of tumour-bearing mice; format: in vivo, NOD/SCID mice; conditions: for Body weight: mice bearing KG-1a and THP-1, 14 days, individual mice, listed as DV
Experimental: (§2) 7-week old female NOD/SCID mice were taken and inoculated subcutaneously with 1×10^7 cells (0.2 ml) per mouse in axilla, with human acute myelogenous leukemia KG-1a cells on the left and human acute monocytic leukemia THP-1 cells on the right. When tumors grew to a tumor size of around 0.5 cm, the mice were randomized into groups with 3 mice each. An equivalent amount of PBS was used for the control group, and the 14-D-Valine-TPL group was divided into two groups with 0.2 mg/kg body weight and 0.4 mg/kg body weight: intragastric administration 2 times a day (one at 8 a.m. and one at 4 p.m.) for consecutive 14 days of treatment. An observation was made for total 30 days, during which the conditions of the mice such as tumor size, weight, activity, diet, and the like were measured. At the end of the experiment, the mice were sacrificed, tumor tissues were taken and the tumors were weighed, and major organs and tissues of the mice such as liver, spleen, heart, lung, large intestine, small intestine, and the like were examined.
as §2, with “the left.” for “the left and human acute monocytic leukemia THP-1 cells on the right.”, “around 50-100 mm^3,” for “around 0.5 cm,”, “the TPL-LLV” for “the 14-D-Valine-TPL”, “with 0.23” for “with 0.2”, “and 0.46” for “and 0.4”, “intragastric administration,” for “intragastric administration”
as §2, with “the left.” for “the left and human acute monocytic leukemia THP-1 cells on the right.”, “around 50-100 mm^3,” for “around 0.5 cm,”, “the TPL-DLV” for “the 14-D-Valine-TPL”, “with 0.23” for “with 0.2”, “and 0.46” for “and 0.4”, “intragastric administration,” for “intragastric administration”
7-week old female NOD/SCID mice were taken and inoculated subcutaneously with 1×10^7 cells (0.2 ml) per mouse in axilla, with human acute myelogenous leukemia KG-1a cells on the left. When tumors grew to a tumor size of around 50-100 mm^3, the mice were randomized into groups with 3 mice each. An equivalent amount of PBS was used for the control group, and the TPL-DLV group was divided into two groups with 0.32 mg/kg body weight and 0.64 mg/kg body weight: intragastric administration, 2 times a day (one at 8 a.m. and one at 4 p.m.) for consecutive 14 days of treatment. An observation was made for total 30 days, during which the conditions of the mice such as tumor size, weight, activity, diet, and the like were measured. At the end of the experiment, the mice were sacrificed, tumor tissues were taken and the tumors were weighed, and major organs and tissues of the mice such as liver, spleen, heart, lung, large intestine, small intestine, and the like were examined. […]

KG-1 = experiment: MTT growth inhibition, KG-1 cells, 72 h; format: cell-based; conditions: Homo sapiens, KG-1, MTT
Experimental: (§3) 5000 well-grown leukemia cells were taken and seeded into wells of a 96-well cell culture plate. The medium was 1640 cell medium containing 10% fetal bovine serum. 14-D-Valine-TPL with different concentrations was added, and after being uniformly mixed, the plate was placed in a carbon dioxide (5% CO2) cell incubator, and incubated at 37° C. for 72 hours. The concentration of live cells was then determined using the MTT assay. In this experiment, the cell viability in the control group (without the compound treatment) was set to be 100%, and the cell viability (%) after the action of the compound and the half maximal growth inhibitory concentration of leukemia cells at 72 hours (IC50 value at 72 hours) were calculated.

U937 = experiment: MTT growth inhibition, U937 cells, 72 h; format: cell-based; conditions: Homo sapiens, U-937
Experimental: as §3

Molt-4 = experiment: MTT growth inhibition, Molt-4 cells, 72 h; format: cell-based, human; conditions: Homo sapiens, MOLT-4, 72 h
Experimental: as §1, §3
as §3, with “well-grown lymphocytes” for “well-grown leukemia cells”

CEM = experiment: MTT growth inhibition, CEM cells, 72 h; format: cell-based, human
Experimental: as §1, §3
as §3, with “well-grown lymphocytes” for “well-grown leukemia cells”

Jurkat = experiment: MTT growth inhibition, Jurkat cells, 72 h; format: cell-based, human
Experimental: as §1, §3
as §3, with “well-grown lymphocytes” for “well-grown leukemia cells”

KG-1a = experiment: MTT growth inhibition, KG-1a cells, 72 h; format: cell-based; conditions: Homo sapiens
Experimental: as §3

Structure (SMILES): CC(C)[C@@H](N)C(=O)O[C@@H]1[C@@]2(C(C)C)O[C@H]2[C@@H]2O[C@]23[C@]12O[C@H]2C[C@H]1C2=C(CC[C@@]13C)C(=O)OC2 [14-D-Valine-TPL, 14-Dextro-Valine-Triptolide]
- therapeutic window indices [1]: 5.54-18.58
- weight loss in the mice (in words) ([2]; dose of 0.4 mg per kilogram of the body weight): no significant weight losses
- Body weight ([2]; 0.2 mg/kg intragastric 2 times a day, mice bearing KG-1a xenografts): 18.5 g and 20.2 g and 19.9 g and 18.1 g and 19.0 g and 20.4 g
- Body weight ([2]; 0.2 mg/kg intragastric 2 times a day, mice bearing THP-1 xenografts): 18.5 g and 20.2 g and 19.9 g and 18.1 g and 19.0 g and 20.4 g
- Body weight ([2]; 0.4 mg/kg intragastric 2 times a day, mice bearing KG-1a xenografts): 20.4 g and 21.0 g and 21.1 g and 21.4 g and 20.8 g and 19.1 g
- Body weight ([2]; 0.4 mg/kg intragastric 2 times a day, mice bearing THP-1 xenografts): 20.4 g and 21.0 g and 21.1 g and 21.4 g and 20.8 g and 19.1 g
- anatomical examination of major organs (heart, lung, liver, spleen, large intestine, small intestine) ([2]; mice of Example 9): no significant abnormalities
- IC50 (KG-1): 49 nM
- IC50 (U937): 60 nM
- IC50 (Molt-4): 10.8 nM
- IC50 (CEM; Homo sapiens, CCRF-CEM, 72 h): 25.5 nM
- Therapeutic window (CEM; IC50 of normal blood cells/IC50 of CEM): 7.89
- IC50 (Jurkat; Homo sapiens, Jurkat, 72 h): 36.3 nM
- Therapeutic window (Jurkat; IC50 of normal blood cells/IC50 of Jurkat): 5.54
- IC50 (KG-1a): 31 nM
